# Data from US10111435B2, “Herbicidal compositions containing N-(1,3,4-oxadiazol-2-yl)-aryl carboxylic acid amides” (BAYER CROPSCIENCE AKTIENGESELLSCHAFT, priority 2013, dated 2018).
# How the values were obtained:
# Assay type in all cases: in vivo
# [1] = system: Echinochloa crus-galli (ECHCG); experiment: greenhouse post-emergence herbicidal efficacy against ECHCG
# Method: (§1) All trials whose results are shown were conducted in a greenhouse by the methodology specified below. The effect of the inventive herbicidal compositions was examined on the following harmful plants 14 and 21 days after application:
# (§2) Echinochloa crus-galli (ECHCG), Eleusine indica (ELEIN), Setaria viridis (SETVI), Amaranthus retroflexus (AMARE), Chenopodium album (CHEAL), Kochia scoparia (KCHSC), Solanum nigrum (SOLNI), Avena fatua (AVEFA), Bromus sterilis (BROST), Lolium multiflorum (LOLMU), Phalaris minor (PHAMI), Poa annua (POAAN), Galium aparine (GALAP), Matricaria inodora (MATIN) and Polygonum convolvulus (POLCO).
# (§3) The harmful plant seeds were sown in pots (diameter 8 cm) with sandy loam soil and germinated under optimal conditions. The inventive herbicidal compositions or the active ingredients alone were applied post-emergence to the planted pots with a spray volume of 300 L/ha. The trial was conducted in a greenhouse under optimum growth conditions. The herbicidal effects were assessed visually by comparison of untreated and treated plants. The percentages mean: 0%=no effects, 100%=the plants die off completely). The percentages are used to calculate interactions between individual treatments and combination treatments according to S. R. Colby, Weeds 15, pages 20 to 22 (1967).
# (§4) The abbreviations mean: • a.i.=active ingredient • E^C=expected value according to Colby (E^C=A+B−A×B/100) • Diff: =difference (%) of measured value from expected value (%) (measured value minus expected value)
# (§5) Assessment: • measured value E is greater than E^C:->synergism (+ diff.) • measured value E equals E^C:->additive effect • measured value E is smaller than E^C:->antagonism(− diff.)
# [2] = system: Polygonum convolvulus (POLCO); experiment: greenhouse post-emergence herbicidal efficacy against POLCO
# Method: as §1, §2
# as §3, with “completely).” for “completely). The percentages are used to calculate interactions between individual treatments and combination treatments according to S. R. Colby, Weeds 15, pages 20 to 22 (1967).”
# as §4, §5
# Eleusine indica (ELEIN) = experiment: greenhouse post-emergence herbicidal efficacy against ELEIN
# Method: as §1, §2, §3, §4, §5
# Kochia scoparia (KCHSC) = experiment: greenhouse post-emergence herbicidal efficacy against KCHSC; conditions: 4 g of a.i./ha
# Method: as §1, §2, §3, §4, §5
# Bromus sterilis (BROST) = experiment: greenhouse post-emergence herbicidal efficacy against BROST
# Method: as §1, §2
# as §3, with “completely).” for “completely). The percentages are used to calculate interactions between individual treatments and combination treatments according to S. R. Colby, Weeds 15, pages 20 to 22 (1967).”
# as §4, §5
# Avena fatua (AVEFA) = experiment: greenhouse post-emergence herbicidal efficacy against AVEFA
# Method: as §1, §2
# as §3, with “completely).” for “completely). The percentages are used to calculate interactions between individual treatments and combination treatments according to S. R. Colby, Weeds 15, pages 20 to 22 (1967).”
# as §4, §5
# [3] = system: Chenopodium album (CHEAL); experiment: greenhouse post-emergence herbicidal efficacy against CHEAL
# Method: as §1, §2, §3, §4, §5
# Poa annua (POAAN) = experiment: greenhouse post-emergence herbicidal efficacy against POAAN
# Method: as §1, §2
# as §3, with “completely).” for “completely). The percentages are used to calculate interactions between individual treatments and combination treatments according to S. R. Colby, Weeds 15, pages 20 to 22 (1967).”
# as §4, §5
# [4] = system: Matricaria inodora (MATIN); experiment: greenhouse post-emergence herbicidal efficacy against MATIN
# Method: as §1, §2
# as §3, with “completely).” for “completely). The percentages are used to calculate interactions between individual treatments and combination treatments according to S. R. Colby, Weeds 15, pages 20 to 22 (1967).”
# as §4, §5
# Phalaris minor (PHAMI) = experiment: greenhouse post-emergence herbicidal efficacy against PHAMI
# Method: as §1, §2
# as §3, with “completely).” for “completely). The percentages are used to calculate interactions between individual treatments and combination treatments according to S. R. Colby, Weeds 15, pages 20 to 22 (1967).”
# as §4, §5
# [5] = system: Lolium multiflorum (LOLMU); experiment: greenhouse post-emergence herbicidal efficacy against LOLMU
# Method: as §1, §2
# as §3, with “completely).” for “completely). The percentages are used to calculate interactions between individual treatments and combination treatments according to S. R. Colby, Weeds 15, pages 20 to 22 (1967).”
# as §4, §5
# Setaria viridis (SETVI) = experiment: greenhouse post-emergence herbicidal efficacy against SETVI
# Method: as §1, §2, §3, §4, §5
# Galium aparine (GALAP) = experiment: greenhouse post-emergence herbicidal efficacy against GALAP
# Method: as §1, §2
# as §3, with “completely).” for “completely). The percentages are used to calculate interactions between individual treatments and combination treatments according to S. R. Colby, Weeds 15, pages 20 to 22 (1967).”
# as §4, §5
# Solanum nigrum (SOLNI) = experiment: greenhouse post-emergence herbicidal efficacy against SOLNI; conditions: 21 days after application
# Method: as §1, §2, §3, §4, §5
# [6] = system: Amaranthus retroflexus (AMARE); experiment: greenhouse post-emergence herbicidal efficacy against AMARE
# Method: as §1, §2, §3, §4, §5
# DIGSA = experiment: greenhouse post-emergence herbicidal efficacy against DIGSA
# Method: as §1, §3, §4, §5
# [7] = 14 days after application, 4 g of a.i./ha
# [8] = 21 days after application, 4 g of a.i./ha
# [9] = 21 days after application, 1 g of a.i./ha
# [10] = 14 days after application, 5 g of a.i./ha
# [11] = 14 days after application, 20 g of a.i./ha
# [12] = 21 days after application, g of a.i./ha: A1-3 20, pinoxaden 5
# [13] = 21 days after application, g of a.i./ha: A1-3 20, pinoxaden 20
# [14] = 21 days after application, g of a.i./ha: A1-3 5, pinoxaden 20
# [15] = 14 days after application, 200 g of a.i./ha
# [16] = 21 days after application, g of a.i./ha: A1-34 50, iodosulfuron-methyl-sodium 0.5
# [17] = 21 days after application, g of a.i./ha: A1-34 50, iodosulfuron-methyl-sodium 2
# [18] = 14 days after application, 50 g of a.i./ha
# [19] = 21 days after application, g of a.i./ha: A1-34 200, iodosulfuron-methyl-sodium 2
# [20] = 21 days after application, 25 g of a.i./ha
# [21] = 14 days after application, 2.5 g of a.i./ha
# [22] = 14 days after application, 10 g of a.i./ha
# [23] = 21 days after application, g of a.i./ha: A1-55 10, glufosinate-ammonium 25
# [24] = 21 days after application, g of a.i./ha: A1-55 10, glufosinate-ammonium 100
# [25] = 14 days after application, 2 g of a.i./ha
# [26] = 21 days after application, 2 g of a.i./ha
# [27] = 21 days after application, g of a.i./ha: A1-55 2.5, glufosinate-ammonium 100
# [28] = 14 days after application, 0.5 g of a.i./ha
# [29] = 21 days after application, g of a.i./ha: A1-55 2.5, glufosinate-ammonium 25
# [30] = 21 days after application, g of a.i./ha: A2-1 12.5, fluroxypyr 20
# [31] = 21 days after application, g of a.i./ha: A2-1 50, fluroxypyr 20
# [32] = 14 days after application, 12.5 g of a.i./ha
# [33] = 21 days after application, g of a.i./ha: A2-1 50, fluroxypyr 80
# [34] = 21 days after application, g of a.i./ha: A2-1 12.5, fluroxypyr 80
structure (smiles),measurement,setting,value
COCc1nnc(NC(=O)c2ccc(C(F)(F)F)c(S(C)(=O)=O)c2C)o1 [A1-3],Efficacy,"[1]; 14 days after application, 1 g of a.i./ha",0%
same,Efficacy,[1]; [7],40%
same,Efficacy,[1]; [8],10%
same,Efficacy,[1]; [9],0%
same,Efficacy,[2]; [10],0%
same,Efficacy,[2]; [11],10%
same,Efficacy,[2]; [12],5%
same,Efficacy,[2]; [13],5%
same,Efficacy,Eleusine indica (ELEIN); [7],50%
same,Efficacy,Eleusine indica (ELEIN); [8],20%
same,Efficacy,Kochia scoparia (KCHSC); 14 days after application,40%
same,Efficacy,Kochia scoparia (KCHSC); 21 days after application,20%
same,Efficacy,Bromus sterilis (BROST); [10],0%
same,Efficacy,Bromus sterilis (BROST); [11],5%
same,Efficacy,Avena fatua (AVEFA); [10],0%
same,Efficacy,Avena fatua (AVEFA); [11],0%
same,Efficacy,[3]; [9],20%
same,Efficacy,Poa annua (POAAN); [10],0%
same,Efficacy,Poa annua (POAAN); [11],5%
same,Efficacy,Poa annua (POAAN); [14],0%
same,Efficacy,Poa annua (POAAN); [13],3%
same,Efficacy,[4]; [10],30%
same,Efficacy,Phalaris minor (PHAMI); [10],0%
same,Efficacy,Phalaris minor (PHAMI); [11],20%
same,Efficacy,Phalaris minor (PHAMI); [12],5%
same,Efficacy,Phalaris minor (PHAMI); [13],5%
same,Efficacy,[5]; [10],0%
same,Efficacy,[5]; [14],0%
same,Efficacy,[5]; [12],5%
same,Efficacy,Setaria viridis (SETVI); [8],20%
same,Efficacy,Setaria viridis (SETVI); [9],10%
same,Efficacy,Galium aparine (GALAP); [10],40%
same,Efficacy,Galium aparine (GALAP); [14],5%
same,Efficacy,Galium aparine (GALAP); [12],5%
same,Efficacy,Galium aparine (GALAP); [13],5%
Cc1c(C(=O)Nc2nnc(C3CC3)o2)ccc(C(F)(F)F)c1[S+](C)[O-] (stereo not shown) [A1-34],Efficacy,Solanum nigrum (SOLNI); 25 g of a.i./ha,10%
same,Efficacy,[2]; [15],30%
same,Efficacy,[2]; [16],0%
same,Efficacy,[2]; [17],0%
same,Efficacy,Bromus sterilis (BROST); [18],10%
same,Efficacy,Bromus sterilis (BROST); [17],15%
same,Efficacy,Bromus sterilis (BROST); [19],35%
same,Efficacy,Avena fatua (AVEFA); [19],5%
same,Efficacy,[3]; [20],70%
same,Efficacy,Poa annua (POAAN); [15],85%
same,Efficacy,[6]; [20],30%
same,Efficacy,"[6]; 21 days after application, 100 g of a.i./ha",50%
same,Efficacy,[4]; [16],50%
same,Efficacy,Phalaris minor (PHAMI); [15],60%
same,Efficacy,[5]; [18],5%
same,Efficacy,[5]; [15],30%
same,Efficacy,Galium aparine (GALAP); [18],50%
same,Efficacy,Galium aparine (GALAP); [16],20%
same,Efficacy,Galium aparine (GALAP); [19],40%
Cc1nnc(NC(=O)c2ccc(C(F)(F)F)c(-n3cccn3)c2Cl)o1 [A1-55],Efficacy,[2]; [21],0%
same,Efficacy,[2]; [22],0%
same,Efficacy,[2]; [23],0%
same,Efficacy,[2]; [24],0%
same,Efficacy,Eleusine indica (ELEIN); [25],40%
same,Efficacy,Eleusine indica (ELEIN); [26],30%
same,Efficacy,Bromus sterilis (BROST); [21],5%
same,Efficacy,Bromus sterilis (BROST); [27],0%
same,Efficacy,Bromus sterilis (BROST); [23],10%
same,Efficacy,Avena fatua (AVEFA); [21],0%
same,Efficacy,Avena fatua (AVEFA); [27],0%
same,Efficacy,Avena fatua (AVEFA); [24],10%
same,Efficacy,[3]; [25],70%
same,Efficacy,Poa annua (POAAN); [21],5%
same,Efficacy,Poa annua (POAAN); [22],20%
same,Efficacy,Poa annua (POAAN); [27],0%
same,Efficacy,Poa annua (POAAN); [24],0%
same,Efficacy,[6]; [28],20%
same,Efficacy,"[6]; 21 days after application, 0.5 g of a.i./ha",10%
same,Efficacy,[4]; [21],0%
same,Efficacy,[4]; [22],30%
same,Efficacy,[4]; [29],0%
same,Efficacy,[4]; [27],0%
same,Efficacy,[4]; [23],20%
same,Efficacy,[4]; [24],20%
same,Efficacy,Phalaris minor (PHAMI); [21],0%
same,Efficacy,Phalaris minor (PHAMI); [22],25%
same,Efficacy,Phalaris minor (PHAMI); [29],0%
same,Efficacy,Phalaris minor (PHAMI); [27],0%
same,Efficacy,Phalaris minor (PHAMI); [23],5%
same,Efficacy,Phalaris minor (PHAMI); [24],5%
same,Efficacy,DIGSA; [28],20%
same,Efficacy,DIGSA; [26],30%
same,Efficacy,[5]; [21],0%
same,Efficacy,[5]; [22],15%
same,Efficacy,[5]; [27],0%
same,Efficacy,[5]; [24],10%
same,Efficacy,Setaria viridis (SETVI); [25],40%
same,Efficacy,Setaria viridis (SETVI); [26],30%
same,Efficacy,Galium aparine (GALAP); [21],0%
same,Efficacy,Galium aparine (GALAP); [22],30%
same,Efficacy,Galium aparine (GALAP); [23],15%
Cc1nnc(NC(=O)c2ccc(C(F)(F)F)nc2C)o1 [A2-1],Efficacy,[1]; [7],50%
same,Efficacy,[1]; [8],40%
same,Efficacy,Solanum nigrum (SOLNI); 1 g of a.i./ha,10%
same,Efficacy,[2]; [18],70%
same,Efficacy,[2]; [30],20%
same,Efficacy,[2]; [31],60%
same,Efficacy,Eleusine indica (ELEIN); [8],60%
same,Efficacy,Kochia scoparia (KCHSC); 21 days after application,40%
same,Efficacy,Bromus sterilis (BROST); [32],0%
same,Efficacy,Bromus sterilis (BROST); [33],0%
same,Efficacy,Avena fatua (AVEFA); [32],0%
same,Efficacy,Avena fatua (AVEFA); [18],0%
same,Efficacy,Avena fatua (AVEFA); [34],0%
same,Efficacy,Avena fatua (AVEFA); [33],0%
same,Efficacy,Poa annua (POAAN); [32],15%
same,Efficacy,Poa annua (POAAN); [30],0%
same,Efficacy,Poa annua (POAAN); [34],0%
same,Efficacy,[4]; [30],80%
same,Efficacy,[4]; [34],80%
same,Efficacy,[4]; [31],85%
same,Efficacy,[4]; [33],85%
same,Efficacy,Phalaris minor (PHAMI); [32],15%
same,Efficacy,Phalaris minor (PHAMI); [34],0%
same,Efficacy,Phalaris minor (PHAMI); [33],15%
same,Efficacy,[5]; [32],0%
same,Efficacy,[5]; [18],0%
same,Efficacy,[5]; [33],0%
same,Efficacy,Setaria viridis (SETVI); [8],20%
